Measured values reported in US8415393B2, “Anti-bacterial drug targeting of genome maintenance interfaces” (Wisconsin Alumni Research Foundation, priority 2007, dated 2013).
Where a SMILES comes first, the peptide text is derived from it.

Key:
RecQ = RecQ (Escherichia coli, UniProt P15043); conditions: read-out: Kd, app; SSB-Ct peptide binding by RecQ; cited from earlier work
PriA = PriA (Escherichia coli, UniProt P17888); conditions: read-out: Kd, app; SSB-Ct peptide binding by PriA; cited from earlier work
Chain of PriA (P17888 whole entry): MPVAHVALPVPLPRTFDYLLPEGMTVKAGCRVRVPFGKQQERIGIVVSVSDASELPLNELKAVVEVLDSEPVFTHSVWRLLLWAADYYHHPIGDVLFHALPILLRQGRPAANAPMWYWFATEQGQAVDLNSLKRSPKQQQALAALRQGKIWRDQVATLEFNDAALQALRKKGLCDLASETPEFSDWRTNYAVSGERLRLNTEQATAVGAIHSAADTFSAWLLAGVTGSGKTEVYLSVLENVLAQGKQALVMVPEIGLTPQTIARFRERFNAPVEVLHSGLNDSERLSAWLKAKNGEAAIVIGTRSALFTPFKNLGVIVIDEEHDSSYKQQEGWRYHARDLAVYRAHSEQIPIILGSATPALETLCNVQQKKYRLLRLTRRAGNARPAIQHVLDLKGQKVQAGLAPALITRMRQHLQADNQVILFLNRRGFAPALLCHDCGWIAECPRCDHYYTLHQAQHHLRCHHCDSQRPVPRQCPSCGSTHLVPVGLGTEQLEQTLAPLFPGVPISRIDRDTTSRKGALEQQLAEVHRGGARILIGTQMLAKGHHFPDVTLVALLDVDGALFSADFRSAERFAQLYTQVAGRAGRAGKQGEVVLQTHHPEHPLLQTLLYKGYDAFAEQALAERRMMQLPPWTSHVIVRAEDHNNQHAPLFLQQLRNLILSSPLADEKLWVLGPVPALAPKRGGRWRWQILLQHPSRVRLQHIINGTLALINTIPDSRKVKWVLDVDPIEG

[1] = target: Topoisomerase III (TopoIII)/C-terminal tail of E. coli SSB (Escherichia coli, UniProt P14294); experiment: Topoisomerase III peptide binding (fluorescence anisotropy); conditions: 100 μM final concentration, 1% DMSO
Chain of Topoisomerase III (TopoIII)/C-terminal tail of E. coli SSB (P14294 whole entry): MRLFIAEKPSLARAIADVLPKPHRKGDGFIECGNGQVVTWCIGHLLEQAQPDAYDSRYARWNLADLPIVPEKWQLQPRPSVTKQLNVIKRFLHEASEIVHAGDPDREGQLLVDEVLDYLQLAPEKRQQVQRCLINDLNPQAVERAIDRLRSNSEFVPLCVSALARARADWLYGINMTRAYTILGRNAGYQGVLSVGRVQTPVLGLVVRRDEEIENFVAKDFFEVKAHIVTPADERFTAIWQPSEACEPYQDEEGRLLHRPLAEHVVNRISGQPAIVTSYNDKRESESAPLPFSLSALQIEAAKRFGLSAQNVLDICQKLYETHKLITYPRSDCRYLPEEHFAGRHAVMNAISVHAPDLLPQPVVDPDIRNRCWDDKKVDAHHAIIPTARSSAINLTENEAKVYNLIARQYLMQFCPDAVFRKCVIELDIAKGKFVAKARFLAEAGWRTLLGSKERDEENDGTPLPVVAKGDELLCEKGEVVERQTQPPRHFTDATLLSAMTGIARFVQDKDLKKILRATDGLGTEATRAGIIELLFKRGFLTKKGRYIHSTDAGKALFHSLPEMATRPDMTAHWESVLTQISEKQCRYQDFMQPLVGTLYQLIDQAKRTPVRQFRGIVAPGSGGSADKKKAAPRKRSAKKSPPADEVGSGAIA
Protocol: TopoIII was titrated into 10 nM fluorescent peptide, as described above for the ExoI binding assays. The buffer conditions for this binding assay were: 300 mM NaCl, 20 mM Tris pH 8.0, 10% Glycerol, 1 mM BME (Beta-Mercaptoethanol), and 1% DMSO. Concentrations of TopoIII used are given on the graph in FIG. 24. Changes in anisotropy upon binding were read using PanVera Beacon 2000 FP.
Either unlabeled peptide or various compounds were then added to a final concentration of 100 μM. These compounds and unlabeled peptide were dissolved in DMSO and their addition brought the final concentration of DMSO to 1%.

ExoI nuclease activity = conditions: radiolabeled ssDNA substrate

Chain of RecQ (P15043 whole entry): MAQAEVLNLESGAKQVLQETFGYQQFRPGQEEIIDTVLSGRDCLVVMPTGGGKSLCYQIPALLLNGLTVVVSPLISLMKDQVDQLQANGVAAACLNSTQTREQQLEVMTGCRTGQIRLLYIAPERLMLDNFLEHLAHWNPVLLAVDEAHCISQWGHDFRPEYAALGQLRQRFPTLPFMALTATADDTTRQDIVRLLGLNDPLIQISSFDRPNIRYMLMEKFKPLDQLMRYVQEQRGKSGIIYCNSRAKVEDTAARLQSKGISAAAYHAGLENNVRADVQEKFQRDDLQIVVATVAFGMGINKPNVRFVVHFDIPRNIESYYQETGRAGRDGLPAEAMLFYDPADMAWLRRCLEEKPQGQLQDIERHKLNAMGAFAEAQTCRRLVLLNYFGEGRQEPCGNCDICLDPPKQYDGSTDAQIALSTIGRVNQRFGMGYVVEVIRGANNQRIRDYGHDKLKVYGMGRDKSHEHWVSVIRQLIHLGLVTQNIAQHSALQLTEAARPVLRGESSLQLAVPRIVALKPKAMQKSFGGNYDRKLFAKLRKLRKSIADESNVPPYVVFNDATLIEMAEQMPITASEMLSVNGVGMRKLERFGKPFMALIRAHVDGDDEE

CC[C@H](C)[C@H](NC(=O)[C@H](CC(=O)O)NC(=O)[C@H](CC(=O)O)NC(=O)[C@H](CC(=O)O)NC(=O)[C@H](Cc1ccccc1)NC(=O)[C@H](CC(=O)O)NC(=O)[C@H](CCSC)NC(=O)[C@@H](N)Cc1c[nH]c2ccccc12)C(=O)N1CCC[C@H]1C(=O)N[C@@H](Cc1ccccc1)C(=O)O [WT peptide] (H-WMDFDDDIPF-OH; N-terminus assumed)
Kd (RecQ): 6 µM | Kd (PriA): 2 µM | inhibition of fluorescent peptide binding to TopoIII (anisotropy) [1]: did not bring the anisotropy values down to the baseline | SSB stimulation of ExoI nuclease activity (ExoI nuclease activity): no apparent effect
